Our source for the IC50 values is PubChem BioAssay AID488890 (Southern Research Specialized Biocontainment Screening …, 2010).

The pIC50 is −log10 of the IC50, conventionally taken in molar units. As usually defined, the IC50 is the concentration that gives 50% inhibition.

pIC50: −log10 of the molar value. Results filed as inconclusive are left out. Calls of active or inactive are those of the source. No rule for the calls is given here.

The assay concerns Mycobacterium tuberculosis non-replicating, growth inhibition. As to the kind of experiment: growth inhibition of non-replicating M. tuberculosis (AID 488890).

Consider `O=C(Nc1ccc(Cl)cn1)C1COc2ccccc2O1` (stereo not drawn), for which the pIC50 is 5.48.
`CC1=CN2C(=N)/C(=C/c3ccc([N+](=O)[O-])o3)C(=O)N=C2S1`: the IC50 was 12.8 µM (inactive).
Take `Cc1ccc(NC(=O)c2ccc([N+](=O)[O-])o2)c(C)c1`: the pIC50 was 5.05.
Still for that read-out and setting: to `O=C(Nc1nnc(-c2ccc(F)cc2)o1)c1cc(Cl)sc1Cl` belongs 5.10.
As for `CCCOc1ccc(-c2nc(C#N)c(NCCCn3ccnc3)o2)cc1`, the IC50 was 17 µM (inactive).
As to `CCCNC(=O)c1ccc(COc2ccc(C)cc2)o1`, the IC50 was 32.9 µM (inactive).
As for `C/C(CC(=O)Nc1ccc(C)c(Cl)c1)=N\NC(=O)c1ccco1`, the IC50 was 28.8 µM (inactive).
Take `Cc1cc(C)c(OCC(=O)Nc2nnc(-c3ccco3)o2)c(C)c1`: the IC50 is 45.3 µM (inactive).
For `CCOc1ccc(N2CC(=O)Nc3ccccc3NCC2=O)cc1`, the pIC50 was 5.40.
Same read-out and setting: for `CCOc1ccc(-c2nc3ccccc3c(=O)o2)cc1` the value was 5.20.
Consider `COc1ccc2c(c1)C(=C(C#N)C#N)C(=O)N2CCc1ccccc1`, for which the IC50 is 25 µM (inactive).
In the case of `O=[N+]([O-])c1ccc(N2CCCCCC2)c2nonc12`, the IC50 is 21.7 µM (inactive).
Take `O=C(Nc1cccnc1)c1cc(Cl)ccc1Cl`: the IC50 was 18.8 µM (inactive).
For `CN1CCc2c(sc(NC(=O)c3ccc([N+](=O)[O-])o3)c2C(N)=O)C1`, the pIC50 was 5.08.
For the compound `Cc1c(C(=O)N(C)C)sc2nc(-c3ccccn3)[nH]c(=O)c12`, the IC50 is 32.7 µM (inactive).
In the case of `O=C(Oc1ccccc1)c1ccc(COC(=O)c2cnccn2)cc1`, the IC50 was 10.7 µM (inactive).
`Cc1cc(N2CCC(C)CC2)nc(-n2nc(C)cc2C)n1`: the pIC50 was 6.08.
The same measure, in the same setting: for `CCCCCOc1ccc(Br)cc1/C(C)=N/NC1=NCCN1` the value was 5.12.
In the case of `O=C(O)c1ccc(NS(=O)(=O)/C=C/c2ccccc2)cc1O`, the pIC50 is 5.51.
On to `O=C(NCCC1=CCCCC1)c1ccc(F)cc1`, for which the pIC50 is 5.87.
`CC(C)CSc1nnc2c3ccccc3n(C)c2n1`: the IC50 is 26.3 µM (inactive).
For the compound `C/C(=C\C(=O)c1ccc(Br)cc1)NNC(=O)c1ccccc1`, the pIC50 was 6.42.
Turning to `Cc1ccc(C(=O)Nc2nnc(C3=COCCO3)o2)cc1C`, the pIC50 was 5.04.
For `O=C(OCC(=O)N1CCN(c2ccccc2)CC1)c1cnc(Cl)c(Cl)c1`, the negative logarithm of the IC50 (pIC50) is 5.33.
For `COc1ccccc1OCCN1CSC(=S)N(C)C1`, the negative logarithm of the IC50 (pIC50) is 5.09.
Turning to `O=C(Nc1nnc(-c2ccc(Cl)cc2)o1)c1nc2ccccc2s1`, the negative-log IC50 (pIC50) was 6.60.
With `O=C(COC(=O)CCC(=O)c1ccc(F)cc1)Nc1ccc(F)cc1F`, the IC50 was 24.6 µM (inactive).
Regarding `O=C(COC(=O)c1ccccc1)NCc1cccs1`, the IC50 is 37.4 µM (inactive).
For the compound `Cc1ccccc1Nc1c(-c2ccccn2)nc2ccccn12`, the IC50 was 13.9 µM (inactive).
As for `CC1=NN(C(=O)c2ccc(Br)cc2)C(O)(c2ccccc2)C1` (stereo not drawn), the pIC50 was 6.33.
`Clc1cccc(OCCN2CCN(CCOc3cccc(Cl)c3)CC2)c1`: the IC50 was 21.7 µM (inactive).
As for `CCc1ccc(OCC(=O)NNC(=O)c2cnccn2)c(Br)c1`, the pIC50 is 5.33.
`O=C(NCc1ccco1)c1nc2ccccc2s1`: the pIC50 was 5.37.
As for `O=[N+]([O-])c1ccc(Nc2ccccc2)c2nonc12`, the pIC50 was 5.54.
In the case of `COc1ccc(Cl)cc1N=Cc1c(O)c2ccccc2oc1=O`, the IC50 is 44.3 µM (inactive).
Regarding `Cc1ccc(C(=O)N/N=C/c2cccc3ccccc23)cn1`, the pIC50 is 5.23.
Same read-out and setting: for `O=[N+]([O-])c1ccc2nc(SCc3cn4ccccc4n3)[nH]c2c1` the value was 5.05.
For `CCN1CCC(=NNC(=O)c2ccco2)CC1`, the IC50 was 42.6 µM (inactive).
Take `CN(C)C=C1C(=O)N(C2CCCCC2)C(=O)N(C2CCCCC2)C1=O`: the pIC50 is 5.80.
`Cc1cccnc1NC(=O)C1COc2ccccc2O1` (stereo not drawn): the IC50 was 29.6 µM (inactive).
For `CC(C)(C)c1ccc(OCCC(=O)OCC(=O)NC2CC2)cc1`, the IC50 was 23.6 µM (inactive).
On to `COc1cccc(C(=O)N2N=C(c3ccccn3)CC2(O)C(F)(F)F)c1` (stereo not drawn), for which the IC50 was 12.3 µM (inactive).
Regarding `O=C1NCC(O)=C1C=Nc1ccccc1O`, the negative-log IC50 (pIC50) is 5.20.
With `O=C(Nc1ccc(Cc2ccncc2)cc1)c1ccc([N+](=O)[O-])o1`, the pIC50 is 5.76.
In the case of `O=C1CCCC(O)=C1C=Nc1ccc2c(c1)oc1ccccc12`, the pIC50 was 5.09.
As to `Cc1cccc(OCCN2CSC(=S)N(C)C2)c1`, the IC50 is 16.4 µM (inactive).
Consider `Cn1c(SCc2c(F)cccc2Cl)nc2c(c1=O)SCC2`, for which the IC50 is 28.2 µM (inactive).
In the case of `CCc1nonc1NC(=O)COc1ccc(Cl)c(C)c1`, the pIC50 is 5.00.
On to `COc1cccc2sc(Nc3nnc(-c4ccc(F)cc4)o3)nc12`, for which the pIC50 was 5.57.
On to `Cc1ccccc1OCCC(=O)OCC(=O)NNC(=O)c1cccs1`, for which the IC50 was 21.4 µM (inactive).
For `CCOc1ccc(-c2nnc(NC(=O)c3ccc(OCC(C)C)c(OC)c3)o2)cc1`, the IC50 was 24.1 µM (inactive).
Regarding `COC(=O)CC(=O)N1CCN(c2ccc(Cl)c(Cl)c2)CC1`, the pIC50 was 5.24.
With `CCOC(=O)CCS(=O)(=O)c1nc(-c2ccccc2)cc(C(F)(F)F)n1`, the pIC50 is 6.00.
On the same count and under the same terms, for `O=C(/C=C/Nc1ccccc1O)c1ccco1` the value was 5.69.
As for `COc1ccc(NC(=O)CCCN2C(=O)/C(=C\c3ccco3)SC2=S)cc1`, the negative-log IC50 (pIC50) is 5.10.
For the compound `O=C(NNC(=O)c1ncc(Cl)c(Cl)c1Cl)c1ccc(F)cc1`, the IC50 was 15.1 µM (inactive).
For `COc1ccc(NC(=O)c2ccc(COCC(F)(F)C(F)F)cc2)cc1`, the IC50 was 12.6 µM (inactive).
Turning to `Cc1cc(N/N=C/c2ccccc2[N+](=O)[O-])nc(-n2nc(C)cc2C)n1`, the pIC50 is 5.71.
`Cc1ccc(Nc2ccccc2N)cc1`: the negative-log IC50 (pIC50) is 5.60.
`COc1cc(/C=N/N(C)C)ccc1OC(=O)c1cccs1`: the pIC50 was 5.08.
Turning to `Cn1c(O)c(C(=Nc2ccccc2)SCc2ccccc2Cl)c(=O)n(C)c1=O`, the pIC50 is 5.08.
Same read-out and setting: to `CCOC(=O)COc1ccc(C(=O)Nc2cccc(Cl)c2C)cc1` belongs 6.64.
Consider `Cc1nc(C(=O)NNC(=O)c2ccc(Cl)cc2)c(C(F)(F)F)o1`, for which the IC50 was 13.9 µM (inactive).
Turning to `O=C(CCc1ccccc1)NC1C2CC3CC(C2)CC1C3` (stereo not drawn), the pIC50 is 5.33.
On to `Cc1ccccc1C1=N/C(=C/c2cccnc2)C(=O)O1`, for which the IC50 was 19.9 µM (inactive).
As for `O=C(Nc1nc2ccccc2n1CCOc1ccc(Cl)cc1)c1ccco1`, the IC50 was 14.4 µM (inactive).
For the compound `O=C1NC(=O)N(Cc2ccco2)C(=O)/C1=C\c1cccn1CCOc1ccc(Cl)cc1`, the pIC50 is 5.13.
Take `CCn1c(NC(=O)C2CCCCC2)nc2ccccc21`: the pIC50 was 5.34.
The same measure, in the same setting: for `O=C(N/N=C\c1ccc([N+](=O)[O-])s1)c1cncc(Br)c1` the value was 5.69; for `Cc1ccc(C)c(-c2csc(NC(=O)c3cnccn3)n2)c1`, 5.50; for `C/C(=N\NC(=O)CCc1ccccc1)C1C(=O)c2ccccc2C1=O`, 6.60.
As for `Cc1cc(C)cc(NC(=O)CCc2ccc(C)o2)c1`, the pIC50 is 5.85.
In the case of `O=c1cc2[nH]c3ccccc3c(=O)n2nc1-c1ccccc1`, the pIC50 is 5.15.
